Assay results from the NIST ThermoML archive (doi:10.1016/j.fluid.2010.06.017).
Numbers after ± are expanded uncertainties.

Test: wn = mass fraction of the nth substance listed
Conditions: 373.15 K; 34470 kPa; Liquid; Vibrating tube method; w1 = 0.4623

mass density: 1399 ± 17 kg/m3
Structure (SMILES): FC(F)(F)C1(F)C(F)(F)C(F)(F)C(F)(F)C(F)(C(F)(F)F)C1(F)F (stereo unspecified) + C
